In publication PMC1175024, “Chondrocytes, synoviocytes and dermal fibroblasts all express PH-20, a hyaluronidase active at neutral pH” (Arthritis Research & Therapy, 2005):

Molecular target: T1, PH-20 (sperm adhesion molecule 1), immunopurified from human connective tissue cell layers (Homo sapiens, UniProt P38567)
T1 construct: gene SPAM1; 60-65 kDa; no tag
T1 sequence (P38567 36-490): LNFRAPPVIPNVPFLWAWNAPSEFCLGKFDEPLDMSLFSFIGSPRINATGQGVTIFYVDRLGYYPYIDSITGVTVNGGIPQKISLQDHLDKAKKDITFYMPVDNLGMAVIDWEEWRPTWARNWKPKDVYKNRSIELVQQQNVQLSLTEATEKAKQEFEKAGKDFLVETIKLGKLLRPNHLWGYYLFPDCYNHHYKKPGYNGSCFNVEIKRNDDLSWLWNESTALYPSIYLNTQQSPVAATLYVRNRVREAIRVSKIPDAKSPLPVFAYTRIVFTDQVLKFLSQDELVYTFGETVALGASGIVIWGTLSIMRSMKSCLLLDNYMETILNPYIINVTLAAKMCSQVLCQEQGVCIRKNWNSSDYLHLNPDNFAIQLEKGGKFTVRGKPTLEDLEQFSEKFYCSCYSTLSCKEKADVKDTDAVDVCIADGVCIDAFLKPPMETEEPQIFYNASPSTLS
Assay: hyaluronan substrate gel electrophoresis (zymography)
Format: biochemical
Conditions: 5 ug/ml apigenin in DMSO; 0.15 M NaCl, 0.5 mM CaCl2, 7 mM 1,4-saccharolactone; pH 6.5; qualitative inhibition

O=c1cc(-c2ccc(O)cc2)oc2cc(O)cc(O)c12 [apigenin]
activity disappeared: hyaluronidase activity purified from cell layers with the immunoaffinity gel (Api(-), right lane), both disappeared
